Source: patent publication EP1068184B1, “N-ARYLOXYETHYLAMINE DERIVATIVES FOR THE TREATMENT OF DEPRESSION” (Wyeth, priority 1998, dated 1999)

Experiments:
5-HT1A cloned receptor = molecular target: T1, 5-HT1A cloned receptor (Homo sapiens, UniProt P08908); assay: [35S]-GTPγS binding assay on 5-HT1A cloned receptor membrane fragments; type: biochemical; conditions: maximum agonist response defined by excess 8-OH-DPAT
T1 construct: expressed in transfected cells
T1 sequence (P08908 1-422): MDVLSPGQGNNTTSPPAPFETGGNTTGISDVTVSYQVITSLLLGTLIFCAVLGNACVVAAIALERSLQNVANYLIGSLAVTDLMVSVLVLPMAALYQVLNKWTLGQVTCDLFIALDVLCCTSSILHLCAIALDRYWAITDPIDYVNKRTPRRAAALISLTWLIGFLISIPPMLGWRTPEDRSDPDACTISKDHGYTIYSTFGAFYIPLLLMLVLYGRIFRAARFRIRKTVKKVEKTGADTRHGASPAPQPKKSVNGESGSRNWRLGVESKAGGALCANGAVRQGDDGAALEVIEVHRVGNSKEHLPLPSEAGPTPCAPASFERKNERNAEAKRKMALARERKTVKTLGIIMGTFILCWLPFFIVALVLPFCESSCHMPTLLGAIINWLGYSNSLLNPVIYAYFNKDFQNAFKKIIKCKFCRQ
Description: The [^35S]-GTPγS binding assay was similar to that used by Lazareno and Birdsall, Br. J. Pharmacol. 109:1120 (1993). Briefly, 5-HT1A cloned receptor membrane fragments (as used for 5-HT1A receptor binding assays) were stored at -70 °C until needed. When needed, membranes were rapidly thawed, centrifuged at 40,000 x g for 10 minutes and resuspended at 4 °C for 10 minutes in assay buffer (25 mM HEPES, 3 mM MgCl2, 100 mM NaCI, 1 mM EDTA, 10 uM GDP, […] DTT, pH 8.0). These membranes were then incubated for 30 min at 30 °C with [^35S]GTPgS (1 nM) in the presence of vehicle, test compound (one to eight concentrations), or excess 8-OH-DPAT to define maximum agonist response. All reactions are terminated by the addition of ice cold Tris buffer followed by rapid filtration using a Tom Tech® filtration device to separate bound from free [^35S]GTPgS. Agonists produce an increase in the amount of [^35S]GTPgS bound whereas antagonists produce no increase in binding. Bound radioactivity was counted and analyzed as above.

serotonin transporter = molecular target: T2, serotonin transporter (Rattus norvegicus, UniProt P31652); assay: serotonin transporter affinity, 3H-paroxetine binding to frontal cortical membranes; parameters: species or system male Sprague-Dawley rats; conditions: 3H-paroxetine 0.1 nM, rat frontal cortical membranes; read-out: ST (Ki)
T2 construct: frontal cortical membranes prepared from male Sprague-Dawley rats; from tissue; host or cells: rat frontal cortex membranes
T2 sequence (P31652 whole entry): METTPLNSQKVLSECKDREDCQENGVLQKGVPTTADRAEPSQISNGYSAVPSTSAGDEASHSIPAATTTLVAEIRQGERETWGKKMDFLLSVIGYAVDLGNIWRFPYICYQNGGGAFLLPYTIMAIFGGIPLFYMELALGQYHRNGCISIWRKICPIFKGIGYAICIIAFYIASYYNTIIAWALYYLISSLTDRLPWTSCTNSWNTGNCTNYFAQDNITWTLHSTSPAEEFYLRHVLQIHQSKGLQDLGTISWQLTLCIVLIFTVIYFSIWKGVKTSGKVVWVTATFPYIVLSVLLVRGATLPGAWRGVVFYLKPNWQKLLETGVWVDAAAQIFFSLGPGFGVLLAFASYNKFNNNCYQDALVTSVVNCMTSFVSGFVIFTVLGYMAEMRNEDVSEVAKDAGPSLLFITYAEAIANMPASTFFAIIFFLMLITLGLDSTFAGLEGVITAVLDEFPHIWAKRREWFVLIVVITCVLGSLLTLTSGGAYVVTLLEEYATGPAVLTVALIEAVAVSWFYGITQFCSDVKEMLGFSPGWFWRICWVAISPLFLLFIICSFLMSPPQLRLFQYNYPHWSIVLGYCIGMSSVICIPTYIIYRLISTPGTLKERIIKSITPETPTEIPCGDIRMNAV
Description: Briefly, frontal cortical membranes prepared from male Sprague-Dawley rats were incubated with ^3H-paroxetine (0.1 nM) for 60 min at 25°C. All tubes also contained either vehicle, test compound (one to eight concentrations), or a saturating concentration of fluoxetine (10 µM) to define specific binding. All reactions are terminated by the addition of ice cold Tris buffer followed by rapid filtration using a Tom Tech filtration device to separate bound from free ^3H-paroxetine.

[1] = molecular target: T3, human 5-HT1A receptor subtype (Homo sapiens, UniProt P08908); assay: cAMP formation in forskolin-treated cells (cAMP SPA assay); type: cell-based; conditions: forskolin 1 uM, 10 min at 37°C
T3 construct: expressed in transfected cells
T3 sequence (P08908 1-422): T1 sequence (P08908 1-422)
Description: (§1) The PCR cloning of the human 5-HT1A receptor subtype from a human genomic library has been described previously Chanda et al., Mol. Pharmacol., 43:516 (1993). A stable Chinese hamster ovary cell line expressing the human 5-HT1A receptor subtype (5-HT1A.CHO cells) was employed throughout this study. Cells were maintained in DMEM supplemented with 10% foetal calf serum, non-essential amino acids and penicillin/ streptomycin.
The following assays were performed by incubating the cells with DMEM containing 25 mM HEPES, 5 mM theophylline and 10 µM pargyline for a period of 20 minutes at 37°C. Functional activity was assessed by treating the cells with forskolin (1 uM final concentration) followed immediately by test compound (6 concentrations) for an additional 10 min at 37°C. In separate experiments, 6 concentrations of antagonist were preincubated for 20 min prior to the addition of 10 nM 8-OH-DPAT and forskolin. The reaction was terminated by removal of the media and addition of 0.5 ml ice cold assay buffer. Plates were stored at -20°C prior to assessment of cAMP formation by a cAMP SPA assay (Amersham).

[2] = molecular target: T3, human 5-HT1A receptor subtype; assay: 5-HT1A receptor binding assay with [3H]8-OH-DPAT on membranes of 5-HT1A.CHO cells; conditions: [3H]8-OH-DPAT 1.5 nM, CHO cell membranes
Description: as §1
Cells were grown to 95-100% confluency as a monolayer before membranes were harvested for binding studies. Cells were gently scraped from the culture plates, transferred to centrifuge tubes, and washed twice by centrifugation (2000 rpm for 10 min., 4°C) in buffer (50 mM Tris; pH 7.5). The resulting pellets were aliquoted and placed at -80°C. On the day of assay, the cells were thawed on ice, and resuspended in buffer. Studies were conducted using [^3H]8-OH-DPAT as the radioligand. The binding assay was performed in 96 well microtiter plates in a final total volume of 250 µL of buffer. Competition experiments were performed by using 7 concentrations of unlabelled drug and a final ligand concentration of 1.5 nM . Non-specific binding was determined in the presence of 10 µM 5HT. Saturation analysis was conducted by using [^3H]8-OH-DPAT at concentrations ranging from 0.3-30 nM. Following a 30 minute incubation at room temperature, the reaction was terminated by the addition of ice cold buffer and rapid filtration using a M-96 Brandel Cell Harvester (Gaithersburg, MD) through a GF/B filter presoaked for 30 minutes in 0.5% polyethyleneimine.

Row | SMILES | Emax (5-HT1A cloned receptor) | Ki (serotonin transporter) | Emax [1] | Ki [2]
1 | COc1ccc(F)cc1OCCN[C@H]1CC[C@H](c2c[nH]c3cc(F)ccc32)CC1 [Example 2b, [(1,4-trans)-4-(6-Fluoro-1H-indol-3-yl)-cyclohexyl]-[2-(5-fluoro-2-methoxy-phenoxy)-ethyl]-amine] | 0% | 0.42 nM | 0% | 47.8 nM
2 | Fc1ccc2[nH]cc([C@H]3CC[C@H](NCCOc4cccc5[nH]ccc45)CC3)c2c1 [Example 3b] | 62% | 2.5 nM | 90% | 1.08 nM
3 | Fc1cc2c(c(OCCN[C@H]3CC[C@H](c4c[nH]c5ccc(F)cc54)CC3)c1)OCCC2 [Example 5b, [2-(6-Fluoro-chroman-8-yloxy)-ethyl]-[(1,4-trans)-4-(5-fluoro-1H -indol-3-yl)-cyclohexyl]-amine] | 22% | 1.52 nM | 0% | 19.4 nM
4 | N#Cc1ccc2[nH]cc([C@H]3CC[C@H](NCCOc4cc(F)cc5c4OCCC5)CC3)c2c1 [Example 5f, 3-{(1,4-trans)-4-[2-(6-Fluoro-chroman-8-yloxy)-ethylamino]-cyclohexyl}-1H-indole-5-carbonitrile] | 30% | 2.6 nM | 0% | 10.1 nM
5 | Cc1nc2c(OCCN[C@H]3CC[C@H](c4c[nH]c5ccc(F)cc54)CC3)cc(Cl)cc2[nH]1 [Example 8b, [2-(6-Chloro-2-methyl-1H-benzoimidazol-4-yloxy)-ethyl]-[(1,4-trans)-4-(5-fluoro-1H-indol-3-yl)-cyclohexyl]-amine] | – | 0.52 nM | 0% | 18.9 nM
